Measured values: publication PMC5740082, “Identification of a CARM1 Inhibitor with Potent In Vitro and In Vivo Activity in Preclinical Models of Multiple Myeloma” (Scientific Reports, 2017)

Biological target: T1, CARM1 (Homo sapiens, UniProt Q86X55)
T1 construct: FLAG-CARM1 (amino acids 2–585)-His for biochemical studies was expressed in 293 F mammalian cells; made in house; host or cells: 293F mammalian cells
T1 sequence (Q86X55 2-585 isoform Q86X55-1): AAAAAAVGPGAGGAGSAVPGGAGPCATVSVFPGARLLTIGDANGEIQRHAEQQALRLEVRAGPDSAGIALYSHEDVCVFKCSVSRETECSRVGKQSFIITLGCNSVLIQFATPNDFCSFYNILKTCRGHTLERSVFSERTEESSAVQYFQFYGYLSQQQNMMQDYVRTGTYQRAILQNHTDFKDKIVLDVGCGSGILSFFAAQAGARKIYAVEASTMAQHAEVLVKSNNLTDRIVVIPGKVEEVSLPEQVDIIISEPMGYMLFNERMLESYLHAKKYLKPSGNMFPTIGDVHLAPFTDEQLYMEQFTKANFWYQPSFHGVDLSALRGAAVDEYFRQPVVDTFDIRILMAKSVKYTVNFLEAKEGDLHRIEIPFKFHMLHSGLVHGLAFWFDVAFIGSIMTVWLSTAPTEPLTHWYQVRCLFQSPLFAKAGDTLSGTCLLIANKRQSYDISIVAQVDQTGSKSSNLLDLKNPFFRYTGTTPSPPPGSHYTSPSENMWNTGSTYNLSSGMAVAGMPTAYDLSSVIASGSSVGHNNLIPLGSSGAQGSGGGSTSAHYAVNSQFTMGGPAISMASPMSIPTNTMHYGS
Assay: CARM1 histone methyltransferase (biochemical) assay
Method: CARM1 activity was measured as previously reported for the histone methyltransferases PRMT1/6/8[65] and PRMT5[58]. Briefly, CARM1 was preincubated with compounds for 30 minutes at room temperature before reactions were initiated. […] The assays were quenched by the addition of 300 μM unlabeled SAM. The quantity of ^3H-labeled peptide produced was measured by Flashplate on a Topcount reader. Further details can be found in the Supplementary Methods.
Histone methyltransferase assay
The compounds were preincubated with CARM1 for 30 minutes at room temperature before the reactions were initiated by the addition of substrates. […]
containing 20 mM bicine, 1 mM tris(2-carbox yethyl)phosphine, 0.005% bovine skin gelatin and 0.002% Tween-20, pH 7.5 and 2% DMSO. The peptide sequence was biotin-aminohexanoate- […]
eKS AP-amide, where RMe is a monomethylated arginine residue (21st
Century Biochemicals, Marlboro, MA). After 2 hours, assa ys were quenched b y the addition of 300 μM unlabeled SAM. The reactions were tran sferred to a 384-well Flashplate (Perkin Elmer) and the biotinylated peptides were allowed to bind to the streptavidin surface for at least 1 hour before being washed once with 0.1% Tween 20. The quantit y of 3H-labeled peptide bound to the Flashplate surface was counted on a Topcount reader as counts per minute (cpm). % Inhibition values wer e calculated and IC50 values were fit using the 3 -param eter IC50 equation below:
YY = BBBBBBBBBBBB + (100 − BBBBBBBBBBBB )HHHHHHHH CCCCCCCCCCHHCCHHCCCCCC where top is fixed at 100 or the maximum inhibition plateau , Y is % inhibition and X is […]
IC50 vs [peptide] data were fit to the noncom petitive Cheng- Prusoff […]
The effect of reaction time on compound potency was determined b y meas uring IC50 values from […]
to a one phase exponential deca y equation. […]
activity was measured under standard conditions after a 30 minute preincubation.
IC 50 values were d etermi ned and data wer e anal yz ed using the following eq uation: […]

CNC[C@@H](O)COc1ccc(Cl)c(-c2nc(-c3c(C)noc3C)c(C)c(N3CC4(CCN(C(=O)OC)CC4)C3)n2)c1 [EZM2302]
α value (dual inhibitor study with SAH) (varying EZM2302 and SAH): 0.2
α (noncompetitive fit, substrate competition) (varying peptide concentrations): 0.2
